{"source": "patent US6355799B1", "about": "“Substituted benzene compounds, process for their preparation, and herbicidal and defoliant compositions containing them” (ISK Americas Incorporated, priority 1997, dated 2002)", "format_in_all_cases": "in vivo", "key": {"[1]": {"tested_on": "redroot pigweed (Amaranthus retroflexus, AMARE)", "assay": "Pre-emerge test, greenhouse herbicide activity screening", "details": "rating scale 0-100, 14 days after application", "summary_of_the_method": "(§1)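 Compounds in acetone were track-sprayed at 15-1000 g ai/ha (187 l/ha) on sandy loam pots: pre-emerge one day after seeding, post-emerge at 2-3 leaf stage with 0.25% v/v non-ionic surfactant. Phytotoxicity was rated 14 days later on a 0 (no damage) to 100 (complete death) scale.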"}, "[2]": {"tested_on": "sicklepod (Cassia obtusifolia, CASOB)", "assay": "Pre-emerge test, greenhouse herbicide activity screening", "details": "rating scale 0-100, 14 days after application", "from_the_text": "(§2) A standard greenhouse herbicide activity screening system was used to evaluate the herbicidal efficacy and crop safety of these test compounds. Seven broadleaf weed species including redroot pigweed (Amaranthus retroflexus, AMARE, velvetleaf (Abutilon theophrasti, ABUTH), sicklepod (Cassia obtusifolia, CASOB), ivyleaf morningglory (Ipomoea hederacea, IPOHE), lambsquarters (Chenopodium album, CHEAL), common ragweed (Ambrosia artemisizfolia L., AMBEL), and cocklebur (Xanthium strumarium, XANST) were used as test species. Four grass weed species including green foxtail (Setaria viridis, SETVI), barnyardgrass (Echinochloa crus-galli, ECHCG), johnsongrass (Sorghum halepense, SORHA), and large crabgrass (Digitaria sanguinalis, DIGSA) were also used. In addition, three crop species, field corn (Zea mays L., var. Dekalb 535, CORN), soybean (Glycine max L., var. Pella 86, SOY), and is upland rice (Oryza sp., var. Tebonnet, RICE) were included.\n(§3) All plants were grown in 10 cm square plastic pots which were filled with a sandy loam soil mix. For pre-emerge tests, seeds were planted one day prior to application of the test compounds. For post-emerge tests, seeds were planted 8-21 days prior to the test to allow emergence and good foliage development prior to application of the test substances. At the time of the post-emerge application, plants of all species were usually at the 2-3 leaf stage of development.\n(§4) All test compounds Were dissolved in acetone and applied to the test units in a volume of 187 l /ha. Test materials were applied at rates ranging from 15 g ai/ha to 1000 g ai/ha using a track sprayer equipped with a TJ8001E even flow flat fan spray nozzle. Plants were arranged on a shelf so that the top of the canopy (post-emerge) or top of the soil surface (pre-emerge) was 40-45 cm below the nozzle. Pressurized air was used to force the test solution through the nozzle as it was mechanically advanced (via electrically driven chain drive) over the top of all test plants/pots. This application simulates a typical commercial field herbicide application.\n(§5) In the post-emerge test, a commercial non-ionic surfactant was also included (0.25% v/v) to enhance wetting of the leaf surfaces of target plants. Immediately after application, test units of the pre-emerge applications were watered at the soil surface to incorporate the test materials. Subsequently, these test units were bottom-watered. Post-emerge test units were always bottom-watered.\n(§6) At 14 days after application of the test materials, phytotoxicity ratings were recorded. A rating scale of 0-100 was used as previously described in Research Methods in Weed Science, 2nd edition, B. Truelove, Ed., Southern Weed Science Society, Auburn University, Auburn, Ala. 1977. Briefly, “0” corresponds to no damage and “100” corresponds to complete death of all plants in the test unit. This scale was used both to determine efficacy against weed species and damage to crop species. Herbicide activity data for various compounds of this invention, which are shown by compound No. in Tables 1-8, are shown in Tables 11 and 12."}, "[3]": {"tested_on": "velvetleaf (Abutilon theophrasti, ABUTH)", "assay": "Pre-emerge test, greenhouse herbicide activity screening", "details": "rating scale 0-100, 14 days after application", "from_the_text": "as §2, §3, §4, §5, §6"}, "[4]": {"tested_on": "barnyardgrass (Echinochloa crus-galli, ECHCG)", "assay": "Pre-emerge test, greenhouse herbicide activity screening", "details": "rating scale 0-100, 14 days after application", "from_the_text": "as §2, §3, §4, §5, §6"}, "[5]": {"tested_on": "lambsquarters (Chenopodium album, CHEAL)", "assay": "Pre-emerge test, greenhouse herbicide activity screening", "details": "rating scale 0-100, 14 days after application", "from_the_text": "as §2, §3, §4, §5, §6"}, "[6]": {"tested_on": "large crabgrass (Digitaria sanguinalis, DIGSA)", "assay": "Pre-emerge test, greenhouse herbicide activity screening", "details": "rating scale 0-100, 14 days after application", "from_the_text": "as §2, §3, §4, §5, §6"}, "[7]": {"tested_on": "ivyleaf morningglory (Ipomoea hederacea, IPOHE)", "assay": "Pre-emerge test, greenhouse herbicide activity screening", "details": "rating scale 0-100, 14 days after application", "from_the_text": "as §2, §3, §4, §5, §6"}, "[8]": {"tested_on": "green foxtail (Setaria viridis, SETVI)", "assay": "Pre-emerge test, greenhouse herbicide activity screening", "details": "rating scale 0-100, 14 days after application", "from_the_text": "as §2, §3, §4, §5, §6"}, "[9]": {"tested_on": "upland rice (Oryza sp., var. Tebonnet, RICE)", "assay": "Pre-emerge test, crop safety", "details": "rating scale 0-100, 14 days after application", "summary_of_the_method": "(§7)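 Plants grown in 10 cm pots of sandy loam mix received acetone-dissolved compounds through a moving flat-fan nozzle. Doses ranged from 15 to 1000 g ai/ha. Pre-emerge pots were seeded one day earlier, post-emerge pots 8–21 days earlier. Fourteen days on, each pot was graded 0–100 for damage.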"}, "[10]": {"tested_on": "field corn (Zea mays L., var. Dekalb 535, CORN)", "assay": "Pre-emerge test, crop safety", "details": "rating scale 0-100, 14 days after application", "summary_of_the_method": "as §7"}, "[11]": {"tested_on": "sicklepod (Cassia obtusifolia, CASOB)", "assay": "Post-emerge test, greenhouse herbicide activity screening", "details": "post-emerge, phytotoxicity rating 0-100 at 14 days after application", "from_the_text": "as §2, §3, §4, §5, §6"}, "[12]": {"tested_on": "velvetleaf (Abutilon theophrasti, ABUTH)", "assay": "Post-emerge test, greenhouse herbicide activity screening", "details": "post-emerge, phytotoxicity rating 0-100 at 14 days after application", "from_the_text": "as §2, §3, §4, §5, §6"}, "[13]": {"tested_on": "barnyardgrass (Echinochloa crus-galli, ECHCG)", "assay": "Post-emerge test, greenhouse herbicide activity screening", "details": "post-emerge, phytotoxicity rating 0-100 at 14 days after application", "from_the_text": "as §2, §3, §4, §5, §6"}, "[14]": {"tested_on": "lambsquarters (Chenopodium album, CHEAL)", "assay": "Post-emerge test, greenhouse herbicide activity screening", "details": "post-emerge, phytotoxicity rating 0-100 at 14 days after application", "from_the_text": "as §2, §3, §4, §5, §6"}, "[15]": {"tested_on": "large crabgrass (Digitaria sanguinalis, DIGSA)", "assay": "Post-emerge test, greenhouse herbicide activity screening", "details": "post-emerge, phytotoxicity rating 0-100 at 14 days after application", "from_the_text": "as §2, §3, §4, §5, §6"}, "[16]": {"tested_on": "ivyleaf morningglory (Ipomoea hederacea, IPOHE)", "assay": "Post-emerge test, greenhouse herbicide activity screening", "details": "post-emerge, phytotoxicity rating 0-100 at 14 days after application", "from_the_text": "as §2, §3, §4, §5, §6"}, "[17]": {"tested_on": "redroot pigweed (Amaranthus retroflexus, AMARE)", "assay": "Post-emerge test, greenhouse herbicide activity screening", "details": "post-emerge, phytotoxicity rating 0-100 at 14 days after application", "from_the_text": "as §2, §3, §4, §5, §6"}, "[18]": {"tested_on": "green foxtail (Setaria viridis, SETVI)", "assay": "Post-emerge test, greenhouse herbicide activity screening", "details": "post-emerge, phytotoxicity rating 0-100 at 14 days after application", "from_the_text": "as §2, §3, §4, §5, §6"}, "[19]": {"tested_on": "upland rice (Oryza sp., var. Tebonnet, RICE)", "assay": "Post-emerge test, crop safety", "details": "post-emerge, crop damage rating 0-100 at 14 days after application", "summary_of_the_method": "as §1"}, "[20]": {"tested_on": "field corn (Zea mays L., var. Dekalb 535, CORN)", "assay": "Post-emerge test, crop safety", "details": "post-emerge, crop damage rating 0-100 at 14 days after application", "summary_of_the_method": "as §1"}}}
{"molecule": "COc1c(Cl)cc(F)c(N2C(=O)C3CCCCN3C2=S)c1NC(=O)c1ccc2ccccc2c1", "note": "(stereo not shown) [12-5]", "values": [{"measurement": "Pre-emerge herbicidal activity, phytotoxicity rating AMARE", "setting": "[1]; 63 g ai/ha", "value": 30}, {"measurement": "Pre-emerge herbicidal activity, phytotoxicity rating AMARE", "setting": "[1]; 250 g ai/ha", "value": 100}, {"measurement": "Pre-emerge herbicidal activity, phytotoxicity rating CASOB", "setting": "[2]; 63 g ai/ha", "value": 0}, {"measurement": "Pre-emerge herbicidal activity, phytotoxicity rating CASOB", "setting": "[2]; 250 g ai/ha", "value": 80}, {"measurement": "Pre-emerge herbicidal activity, phytotoxicity rating ABUTH", "setting": "[3]; 63 g ai/ha", "value": 70}, {"measurement": "Pre-emerge herbicidal activity, phytotoxicity rating ABUTH", "setting": "[3]; 250 g ai/ha", "value": 90}, {"measurement": "Pre-emerge herbicidal activity, phytotoxicity rating ECHCG", "setting": "[4]; 63 g ai/ha", "value": 0}, {"measurement": "Pre-emerge herbicidal activity, phytotoxicity rating ECHCG", "setting": "[4]; 250 g ai/ha", "value": 40}, {"measurement": "Pre-emerge herbicidal activity, phytotoxicity rating CHEAL", "setting": "[5]; 63 g ai/ha", "value": 90}, {"measurement": "Pre-emerge herbicidal activity, phytotoxicity rating CHEAL", "setting": "[5]; 250 g ai/ha", "value": 100}, {"measurement": "Pre-emerge herbicidal activity, phytotoxicity rating DIGSA", "setting": "[6]; 63 g ai/ha", "value": 0}, {"measurement": "Pre-emerge herbicidal activity, phytotoxicity rating DIGSA", "setting": "[6]; 250 g ai/ha", "value": 10}, {"measurement": "Pre-emerge herbicidal activity, phytotoxicity rating IPOHE", "setting": "[7]; 63 g ai/ha", "value": 0}, {"measurement": "Pre-emerge herbicidal activity, phytotoxicity rating IPOHE", "setting": "[7]; 250 g ai/ha", "value": 20}, {"measurement": "Pre-emerge herbicidal activity, phytotoxicity rating SETVI", "setting": "[8]; 63 g ai/ha", "value": 0}, {"measurement": "Pre-emerge herbicidal activity, phytotoxicity rating SETVI", "setting": "[8]; 250 g ai/ha", "value": 0}, {"measurement": "Pre-emerge phytotoxicity rating, crop damage RICE", "setting": "[9]; 63 g ai/ha", "value": 0}, {"measurement": "Pre-emerge phytotoxicity rating, crop damage RICE", "setting": "[9]; 250 g ai/ha", "value": 10}, {"measurement": "Pre-emerge phytotoxicity rating, crop damage CORN", "setting": "[10]; 63 g ai/ha", "value": 0}, {"measurement": "Pre-emerge phytotoxicity rating, crop damage CORN", "setting": "[10]; 250 g ai/ha", "value": 0}, {"measurement": "Post-emerge Herbicidal Activity CASOB", "setting": "[11]; 63 g ai/ha", "value": 40}, {"measurement": "Post-emerge Herbicidal Activity CASOB", "setting": "[11]; 250 g ai/ha", "value": 60}, {"measurement": "Post-emerge Herbicidal Activity ABUTH", "setting": "[12]; 63 g ai/ha", "value": 100}, {"measurement": "Post-emerge Herbicidal Activity ABUTH", "setting": "[12]; 250 g ai/ha", "value": 100}, {"measurement": "Post-emerge Herbicidal Activity ECHCG", "setting": "[13]; 63 g ai/ha", "value": 10}, {"measurement": "Post-emerge Herbicidal Activity ECHCG", "setting": "[13]; 250 g ai/ha", "value": 10}, {"measurement": "Post-emerge Herbicidal Activity CHEAL", "setting": "[14]; 63 g ai/ha", "value": 100}, {"measurement": "Post-emerge Herbicidal Activity CHEAL", "setting": "[14]; 250 g ai/ha", "value": 99}, {"measurement": "Post-emerge Herbicidal Activity DIGSA", "setting": "[15]; 63 g ai/ha", "value": 0}, {"measurement": "Post-emerge Herbicidal Activity DIGSA", "setting": "[15]; 250 g ai/ha", "value": 10}, {"measurement": "Post-emerge Herbicidal Activity IPOHE", "setting": "[16]; 63 g ai/ha", "value": 100}, {"measurement": "Post-emerge Herbicidal Activity IPOHE", "setting": "[16]; 250 g ai/ha", "value": 99}, {"measurement": "Post-emerge Herbicidal Activity AMARE", "setting": "[17]; 63 g ai/ha", "value": 70}, {"measurement": "Post-emerge Herbicidal Activity AMARE", "setting": "[17]; 250 g ai/ha", "value": 85}, {"measurement": "Post-emerge Herbicidal Activity SETVI", "setting": "[18]; 63 g ai/ha", "value": 20}, {"measurement": "Post-emerge Herbicidal Activity SETVI", "setting": "[18]; 250 g ai/ha", "value": 10}, {"measurement": "Post-emerge Herbicidal Activity RICE", "setting": "[19]; 63 g ai/ha", "value": 20}, {"measurement": "Post-emerge Herbicidal Activity RICE", "setting": "[19]; 250 g ai/ha", "value": 15}, {"measurement": "Post-emerge Herbicidal Activity CORN", "setting": "[20]; 63 g ai/ha", "value": 25}, {"measurement": "Post-emerge Herbicidal Activity CORN", "setting": "[20]; 250 g ai/ha", "value": 20}]}
